Legend:
Assay type in all cases: in vivo
[1] = tested on: hApoE2 KI/PPARalpha KO mice; assay: hApoE2 KI/PPARalpha KO mice on Western diet, hepatic lipid analysis (liver triglycerides); conditions: 30 mg/kg/day by gavage, 6 weeks, FIG. 4D
Experimental: The compounds of the General Formula (I) were tested in vivo in a high fat diet mice model. Dyslipidemic “humanized” hApoE2 KI deficient for PPARalpha were fed a Western diet and treated during 6 weeks. The compounds of interest, including the Compound 29 of WO 2004/005233 at 30 mg/kg/day and the Compound 1 of WO 2007/147879 at 30 mg/kg/day were orally administrated by gavage. At the end of the protocol, animals were sacrificed, livers were harvested and the hepatic expression of relevant genes implicated in the liver inflammation and the fibrosis processes were evaluated by quantitative RT-PCR. In parallel, liver triglycerides contents were evaluated (Panels A-D). Statistical analysis was performed as indicated for FIG. 1.
Animals were fed a Western diet (20% saturated fat and 0.2% cholesterol, Harlan Teklad TD88137) during 2 weeks in the first study, that involved the daily administration of Cpd 29 (at 30 mg/kg/day by oral gavage), and during 6 weeks in the second study, that involved the daily administration of Compound 1 of WO 2007147879 (Cpd1, at 30 mg/kg/day by oral gavage). […]
In another study, the liver-specific anti-inflammatory and anti-fibrotic properties effects of Cpd 29 and Compound 1 of WO 2007/147879 (Cpd 1) were evaluated in the hApoE2 KI/PPARalpha KO mice that were fed a Western diet and daily treated with the selected compounds during 6 weeks.

ob/ob mice = assay: ob/ob mice, plasma ALAT after 26 days of treatment; conditions: 26 days daily gavage; Cpd 29 30 mg/kg/day, Rosiglitazone 10 mg/kg/day; FIG. 2C
Experimental: The compounds of the General Formula (I) were tested in a murine model of type II diabetes, the ob/ob mice. […] After 26 days of treatment, animals were sacrificed and plasma samples and livers were harvested. Hepatic expression of genes that are known to be implicated in the liver inflammation process was evaluated and plasmatic levels of ALAT were measured (Panels A-C). Statistical analysis was performed using unpaired T-test with three p values that defines statistical relevance (* means p<0.05; ** means p<0.01; *** means p<0.001).
Male ob/ob mice (8 weeks of age) were purchased from Charles River (L'Arbresle, France) and were kept on a 12-hour light/dark cycle at a constant temperature of 20±3° C. After a 1 week acclimation, mice were separated in groups of 8 animals selected such that the distribution of their body weight and their 6 hours fasting glycemia determined before the experiment were uniform. Animals were fed a standard chow diet (R03, SAFE) and treated during 26 days with the compounds of interest. […] Control animals were treated with vehicle only (Carboxymethlycellulose 1%+Tween-80 0.1%). Animals had access to food and water ad libitum.
At the end of the studies, the animals were weighed and sacrificed under anesthesia. […]

hApoE2 KI mice = hApoE2 KI mice on Western diet, 12 weeks, hepatic gene expression by quantitative RT-PCR; conditions: 12 weeks in Western diet, Cpd 29 0.3 mg/kg/day
Experimental: The compounds of the General Formula (I) were tested in vivo in a high fat diet mice model. Dyslipidemic “humanized” ApoE2 knock-in mice (hApoE2 KI) were fed a Western diet and treated during 12 weeks. The compounds of interest, including the Compound 29 of WO 2004/005233 at 0.3 mg/kg/day and the Fenofibrate at 100 mg/kg/day (used as a reference compound) were incorporated into the diet. At the end of the protocol, animals were sacrificed, livers were harvested and the hepatic expression of genes that are known to be implicated in the liver inflammation and the fibrosis processes were evaluated by quantitative RT-PCR (Panels A-D). Statistical analysis was performed as indicated for FIG. 1.
Female hApoE2 knock-in (KI) transgenic mice (Sullivan et al., 1998)(4 weeks of age). Mice were kept on a 12-hour light/dark cycle at a constant temperature of 20±3° C. After a 1 week acclimation, mice were separated in groups of 7-10 animals selected such as the distribution of their body weight and plasmatic lipid levels determined before the experiment were uniform. Animals were fed a Western diet (20% saturated fat and 0.2% cholesterol, Harlan Teklad TD88137) at weaning and during 12 weeks. Compounds of interest (Cpd 29 at 0.3 mg/kg/day and Fenofibrate at 100 mg/kg/day) were incorporated in the Western diet (SAFE, Augy, France) and administrated to mice during 12 weeks. Control animals received Western diet only. Animals had access to food and water ad libitum.
At the end of the studies, the animals were weighed and sacrificed under anesthesia. Blood was collected from the retro-orbital sinus; plasma was obtained by centrifugation (4 000 rpm, at 4° C. for 15 min) and subsequently frozen and stored at −20° C. Tissues and livers were isolated and snap-frozen in liquid nitrogen and stored at −80° C. for subsequent analysis (gene expression and biochemistry) or fixed in 4% paraformaldehyde for histology.
Total RNA was isolated from frozen livers using the NucleoSpin® 96 RNA kit (Macherey Nagel), according to the manufacturer's instructions. Reverse transcription was performed on 1 μg of total RNA by action of 1 μl of MMLV-RT enzyme (Invitrogen) during 1 hour at 37° C. in a total volume of 30 μl. […] Quantitative PCR was then carried out using the MyiQ Single-Color Real-Time PCR Detection System (Biorad). […]
The quantity of fluorescence emitted is directly proportional to the quantity of complementary DNA present at the start of the reaction and amplified during the PCR. The relative levels of expression were determined using the standard curve for each transcript. […] The induction factor, i.e. the ratio between the relative signal induced by the compound according to the invention and the average of the values relating to the control group, was then calculated for each sample. […]

With “1-[4-methylthiophenyl]-3-[3,5-dimethyl-4-carboxydimethylmethyloxyphenyl]prop-2-en-1-one [Cpd 29]” the “triglycerides accumulation in the liver” value [1] was “prevented”, the “plasmatic levels of ALAT” value (ob/ob mice) was “statistically significant decrease” and the “hepatic expression of Col1a1 (collagen genes)” value (hApoE2 KI mice; Fenofibrate 100 mg/kg/day, FIG. 3D) was “statistically significant inhibition”. For the same substance, the “hepatic expression of TNFα” value (hApoE2 KI mice; FIG. 3A) was “inhibited”, the “hepatic expression of CCL5” value (hApoE2 KI mice; FIG. 3B) was “inhibited” and the “hepatic expression of TGFβ” value (hApoE2 KI mice; FIG. 3C) was “inhibited”.
